Data taken from US20090211893A1, “Photo-Activatable Amino Acids” (priority 2005, published 2009).

Experiments:
[1] = tested on: COS7 cells; test: Incorporation of [1-14C]photo-Met and [3H]Phe into newly synthesized protein; assay type: cell-based, monkey
Procedure: Cells were washed 6 times with PBS and lysed in 0.5% Triton X-100, 0.2% sodium deoxycholate. Aggregated DNA was removed, protein was precipitated^43, the pellet was redissolved in 0.3 ml 0.5% SDS and subjected to a second round of precipitation. […] The dried pellet was redissolved and processed for scintillation counting (data of Table 1 and FIG. 4b) or processed as follows for amino acid analysis (FIG. 2b): the pellet was dissolved in 600 µl 50 mM NH4HCO3, 0.5% SDS, 3 mM CaCl2 containing 0.25 mg pronase (Roche) followed by incubation at 37° C. for 20 h. The sample was lyophilized, dissolved in 600 μl of 7 N HCl containing 4 mg of glutamic acid and 6 mg of photo-Met and heated to 70° C. for 24 h. A Dowex 50WX8 column (1.6×24 cm) was prepared^18 and equilibrated with 0.1 M sodium citrate pH 3.8. The sample was concentrated to 50 μl in a speed-vak, diluted to 1 ml with 0.1 M sodium citrate pH 3.8, and loaded onto the column. The column was eluted at 24° C. at a flow rate of 20 ml/h with 70 ml 0.1 M sodium citrate pH 3.8, 26 ml 0.1 M sodium citrate pH 4.3 and 100 ml of 0.1 M sodium citrate pH 4.5. Fractions of 3 ml were collected and assayed for absorbance at 350 nm, radioactivity by scintillation counting, and amino groups by the fluorescamine method^44.
To decrease competition for activation by tRNA synthetases, media devoid of the structurally related amino acids Leu and Met (LM-2) or, for some experiments, devoid of Leu, Met, Ile and Val (LM-4) were used. Proteins incorporated radioactivity as shown by autoradiography after separation by SDS-PAGE (FIG. 2a, lane 3). […] 88% of the radioactivity in the labeled proteins was intact [1-^14C]photo-Met (FIG. 2b, photo-Met). A small peak eluting slightly earlier than glutamic acid (FIG. 2 B, Glu) contained 7% of the radioactivity. This peak was also observed if free [1-^14C]photo-Met was heated with HCl under the conditions of the hydrolysis (data not shown) and therefore represents a product of thermal decomposition of the amino acid. Under the conditions employed, radioactivity originating from degradation/re-integration would be expected to appear as aspartate and glutamate (oxidative release of [^14C]CO2, metabolism via pyruvate carboxylase, citric acid cycle and transamination to Gln and Asn that will be hydrolyzed to Glu and Asp by hot HCl). However, no radioactivity was incorporated via this pathway. We conclude that at least 95% of incorporated radioactivity represents intact [1-^14C]photo-Met. To obtain quantitative data on the frequency of incorporation of photo-Met into newly synthesized protein, we performed co-labeling with [1-^14C]photo-Met and [^3H]Phe. […] Two in three hundred amino acids in newly synthesized protein will be photo-Met.

[2] = tested on: HA-tagged human PGRMC1; test: Competition of PGRMC1 cross-linking by natural amino acids; assay type: cell-based; conditions: 3 mM competing amino acid, COS7 cells in LM-4
Procedure: FIG. 4: Specificity of incorporation and cross-linking by photo-Met and photo-Leu. COS7 cells were transfected with HA-tagged human PGRMC1 and were grown in LM-4 in the absence or presence of photo-Leu (A) or photo-Met (B) with addition of 3 mM of the indicated competing amino acid. cross-linked products formed after UV-irradiation were detected by SDS-PAGE followed by western blotting against the HA-epitope. (C) COS7 cells were grown in the presence of 1.7 mM [1-^14C]photo-Met, a constant trace amount of [^3H]Phe and 3 mM of competing unlabeled amino acids as indicated in the legend. Protein was precipitated and protein-bound radioactivity was determined by scintillation counting. […] The control value obtained in the absence of competing amino acid (con) is set to 100. Data are average±SD of triplicate determinations.
If so, addition of the complementary naturally occurring amino acid should strongly reduce incorporation and inhibit photo-crosslinking. […] To find out if competition for cross-linking reflects competition for incorporation, we competed incorporation of [1-^14C]photo-Met with the same set of amino acids (FIG. 4c). […] It should be noted that Met, Val, Leu and Ile all are transported into cells by the L-type transport system^25, which presumably also transports the three photo-amino acids. The strong difference in competition by Met and Leu versus Val and Ile excludes competition at the level of uptake.

CC1(CCC(N)C(=O)O)N=N1 [photo-Met, L-2-amino-5,5′-azi-hexanoic acid]
frequency of substitution of photo-Met for Met [1]: 35%
competition of cross-linking by Met, Val, Leu and Ile [2]: mainly by Met, and to a lower extent by Leu
effect of Val and Ile on cross-linking [2]: did not compete, but even enhance
